Calls of active or inactive are those of the source. The calls are words filed in the database; no cut-off is given here.
Key:
[1] = target: T1, Relaxin-3 receptor 1 (Homo sapiens) (UniProt Q9NSD7); assay: Agonist activity at human RXFP3 expressed in CHOK1 cells assessed as inhibition of forskolin-stimulated intracellular cAMP accumulation preincubated for 30 mins followed by forskolin-stimulation and measured after 30 mins by HTRF assay relative to relaxin-3; format: functional, cell-based
T1 sequence (whole entry): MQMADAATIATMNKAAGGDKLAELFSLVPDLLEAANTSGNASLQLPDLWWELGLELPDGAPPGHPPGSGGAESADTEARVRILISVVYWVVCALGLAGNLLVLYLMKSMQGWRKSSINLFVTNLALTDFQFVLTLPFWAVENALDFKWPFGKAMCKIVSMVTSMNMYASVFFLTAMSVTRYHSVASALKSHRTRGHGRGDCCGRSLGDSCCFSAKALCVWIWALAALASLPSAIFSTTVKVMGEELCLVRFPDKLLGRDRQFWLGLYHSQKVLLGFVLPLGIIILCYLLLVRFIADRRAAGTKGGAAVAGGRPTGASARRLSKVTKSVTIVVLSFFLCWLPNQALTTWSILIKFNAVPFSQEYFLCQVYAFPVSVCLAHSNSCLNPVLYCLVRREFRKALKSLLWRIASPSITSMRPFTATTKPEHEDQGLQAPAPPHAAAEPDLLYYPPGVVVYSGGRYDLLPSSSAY

[2] = target: T2, Relaxin-3 receptor 2 (Homo sapiens, UniProt Q8TDU9); assay: Agonist activity at human RXFP4 expressed in CHOK1 cells assessed as inhibition of forskolin-stimulated intracellular cAMP accumulation preincubated for 30 mins followed by forskolin-stimulation and measured after 30 mins by HTRF assay; format: functional, cell-based
T2 sequence (Q8TDU9 whole entry): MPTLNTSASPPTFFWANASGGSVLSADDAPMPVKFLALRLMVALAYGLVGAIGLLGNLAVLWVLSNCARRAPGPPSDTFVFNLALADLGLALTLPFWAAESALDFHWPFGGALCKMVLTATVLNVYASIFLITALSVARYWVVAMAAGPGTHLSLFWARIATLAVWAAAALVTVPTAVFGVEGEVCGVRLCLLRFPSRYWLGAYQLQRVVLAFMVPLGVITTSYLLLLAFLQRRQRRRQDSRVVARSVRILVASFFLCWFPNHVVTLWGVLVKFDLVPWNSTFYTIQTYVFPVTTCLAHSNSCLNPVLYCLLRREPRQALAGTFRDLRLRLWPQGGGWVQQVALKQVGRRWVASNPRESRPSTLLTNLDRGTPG

[3] = target: T2, Relaxin-3 receptor 2; assay: Agonist activity at human RXFP4 expressed in CHOK1 cells assessed as inhibition of forskolin-stimulated intracellular cAMP accumulation preincubated for 30 mins followed by forskolin-stimulation and measured after 30 mins by HTRF assay relative to relaxin-3; format: functional, cell-based
[4] = target: T2, Relaxin-3 receptor 2; assay: Agonist activity at human RXFP4 expressed in CHOK1 cell membranes assessed as stimulation of [35S]-GTPgammaS binding after 3 hrs by scintillation counting method; format: functional
[5] = target: T1, Relaxin-3 receptor 1 (Homo sapiens); assay: Agonist activity at human RXFP3 expressed in CHOK1 cells assessed as induction of ERK1/2 phosphorylation at 5 uM by Western blot analysis; format: cell-based
[6] = target: T1, Relaxin-3 receptor 1 (Homo sapiens); assay: Agonist activity at human RXFP3 expressed in CHOK1 cells assessed as induction of JNK phosphorylation at 5 uM by Western blot analysis; format: cell-based
[7] = target: T1, Relaxin-3 receptor 1 (Homo sapiens); assay: Agonist activity at human RXFP3 expressed in CHOK1 cells assessed as induction of p38 MAPK phosphorylation at 5 uM by Western blot analysis; format: cell-based
[8] = test system: Rattus norvegicus; assay: Induction of food intake in satiated Sprague-Dawley rat at 1 umol, icv after 0 to 2 hrs (reference value: 1.7 +/- 0.5g); format: functional
[9] = test system: Rattus norvegicus; assay: Induction of food intake in Sprague-Dawley rat at 1 umol, icv after 4 hrs (reference value: 2.5 +/- 0.6g); format: functional
[10] = test system: Rattus norvegicus; assay: Induction of food intake in Sprague-Dawley rat at 1 umol, icv after 24 hrs (reference value: 24.1 +/- 2.7g); format: functional
[11] = target: Relaxin-3 receptor 1/2 (Homo sapiens) (UniProt Q9NSD7+Q8TDU9); assay: Agonist activity at human RXFP3/4 in human U2OS cells assessed as induction of beta-arrestin recruitment incubated for 1 hr by chemiluminescence based PathHunter beta-arrestin assay relative to relaxin-3; format: cell-based
Chain of Relaxin-3 receptor 1/2 (Homo sapiens) (Q8TDU9 whole entry, looked up, one chain of several): as the sequence (Q8TDU9 whole entry) above

[12] = organism: Cricetulus griseus; assay: Induction of ERK1/2 phosphorylation CHOK1 cells at 5 uM by Western blot analysis
[13] = organism: Cricetulus griseus; assay: Induction of p38 MAPK phosphorylation CHOK1 cells at 5 uM by Western blot analysis
[14] = organism: Cricetulus griseus; assay: Induction of JNK phosphorylation CHOK1 cells at 5 uM by Western blot analysis
[15] = test system: CHO-K1; assay: Effect on total ERK1/2 protein levels in CHOK1 cells at 5 uM by Western blot analysis; format: ADME, cell-based, Cricetulus griseus; conditions: chinese hamster, cho-k1, 5 µM
[16] = test system: CHO-K1; assay: Effect on total JNK protein levels in CHOK1 cells at 5 uM by Western blot analysis; format: ADME, cell-based, Cricetulus griseus; conditions: chinese hamster, cho-k1, 5 µM
[17] = test system: CHO-K1; assay: Effect on total p38 MAPK protein levels in CHOK1 cells at 5 uM by Western blot analysis; format: ADME, cell-based, Cricetulus griseus; conditions: chinese hamster, cho-k1, 5 µM
[18] = target: T3, Relaxin-3 receptor 1 (Homo sapiens, UniProt Q9NSD7); assay: Agonist activity at human RXFP3 expressed in CHOK1 cells assessed as inhibition of forskolin-stimulated intracellular cAMP accumulation preincubated for 30 mins followed by forskolin-stimulation and measured after 30 mins by HTRF assay; format: functional, cell-based
T3 sequence (Q9NSD7 whole entry): T1 sequence (whole entry)

Row | SMILES | Emax [1] | EC50 [2] | Emax [3] | EC50 [4] | Activity [5] | Activity [6] | Activity [7] | Activity [8] | Activity [9] | Activity [10] | Emax [11] | Activity [12] | Activity [13] | Activity [14] | Activity [15] | Activity [16] | Activity [17] | EC50 [18]
1 | CCc1cc(O)cc2c(/C=N/NC(=N)NCCc3ccc(Cl)cc3)c[nH]c12 | 105% | 2 nM | 100% | 11 nM | Active | Active | inactive | 3.5 g | 7.1 g | 35.3 g | 79.2% | inactive | inactive | inactive | Non-Toxic | Non-Toxic | Non-Toxic | 
2 | COc1cc(C)c2[nH]cc(/C=N/NC(=N)NCCc3ccc(Cl)cc3)c2c1 | 55.7% | 100 nM | 113% |  |  |  |  |  |  |  |  |  |  |  |  |  |  | 1300 nM
3 | Cc1cc(O)cc2c(/C=N/NC(=N)NCCc3ccc(Cl)c(Cl)c3)c[nH]c12 | 77.7% | 4 nM | 113% |  |  |  |  |  |  |  |  |  |  |  |  |  |  | 800 nM
4 | COc1cc(C)c2[nH]cc(/C=N/NC(=N)NCCc3ccc(Cl)c(Cl)c3)c2c1 |  | 58 nM | 99 to 99.2% |  |  |  |  |  |  |  |  |  |  |  |  |  |  | 
